The test system of assay [1] is cells of rat pituitary glands. The assay is described as follows: in vitro assay of growth hormone release from cultured rat pituitary cells, side-by-side with hpGRF(1-40)-OH standard. In kind it is cell-based. The settings on record: for Comparison %: GH release at equimolar concentrations relative to synthetic hpGRF(1-40)-OH standard (100%), incubation 3 to 4 hours, ir GH by radioimmunoassay. The protocol:
To determine the effectiveness of the various synthetic peptides to promote the release of growth hormone, in vitro assays are carried out using synthetic hpGRF(1-40)-OH as a standard in side-by-side comparison with equimolar concentrations of the various other analogs and fragments synthesized. Cultures are used which include cells of rat pituitary glands removed some three to five days previously. Cultures which are considered optimal for the secretion of growth hormone are used for the comparative testing, in the general manner described in Vale et al. Endocrinology, 91, 562-572 (1972) and as more particularly described in Vale et al. Endocrinology, (1983), in press. Incubation with the substance to be tested is carried out for 3 to 4 hours, and aliquots of the culture medium are removed and processed to measure their contents in immunoreactive GH(ir GH) by a well-characterized radioimmunoassay.

For assay [2], the system named is freely running normal male rats. The assay is described as follows: in vivo GH secretion after injection through indwelling catheter in FLA-63-pretreated rats. Also noted: species or system rat. The settings on record: male rats pretreated with FLA-63. The protocol: In addition to the in vitro tests for secretion of growth hormone, in vivo experiments inject the synthetic peptides through an indwelling catheter into freely running normal male rats after pretreating them with FLA-63, a dopamine hydroxylase inhibitor that suppresses spontaneous GH secretion without affecting the response to exogenous GRF. Blood samples are taken through the same catheter immediately prior to and 5 and 20 minutes after injections. […] Dosages between about 100 nanograms and about 50 micrograms of these peptides per Kg. of body weight are considered to be effective in causing GH secretion.

Square brackets hold non-standard residues; d marks the D form. Peptide text beside a SMILES is read from it. Nle = CCCC[C@H](N)C(=O)O

We go through three compounds from US4518586A, “GRF Analogs III” (The Salk Institute for Biological Studies, priority 1983, dated 1985).

`CCCC[C@H](NC(=O)[C@@H](NC(=O)[C@@H](CCC(=O)O)NC(=O)[C@H](Cc1c[nH]cn1)NC(=O)[C@H](CC(C)C)NC(=O)[C@H](CC(C)C)NC(=O)[C@H](CCCCN)NC(=O)[C@H](CCCNC(=N)N)NC(=O)[C@H](C)NC(=O)[C@H](Cc1ccc(O)cc1)NC(=O)[C@H](CC(C)C)NC(=O)[C@H](CCC(N)=O)NC(=O)CNC(=O)[C@H](CC(C)C)NC(=O)[C@@H](NC(=O)[C@H](CCCNC(=N)N)NC(=O)[C@H](CCCNC(=N)N)NC(=O)[C@H](Cc1ccc(O)cc1)NC(=O)[C@H](CO)NC(=O)[C@H](CO)NC(=O)[C@@H](NC(=O)[C@H](Cc1ccccc1)NC(=O)[C@@H](NC(=O)[C@H](C)NC(=O)[C@H](CC(=O)O)NC(=O)[C@H](C)NC(=O)[C@@H](N)Cc1c[nH]cn1)[C@@H](C)CC)[C@@H](C)O)[C@@H](C)CC)[C@@H](C)CC)C(=O)N[C@@H](CC(N)=O)C(=O)N[C@@H](CCCNC(=N)N)C(N)=O` [[D-Glu^25, Nle^27]-rGRF(1-29)-NH2, H-His-Ala-Asp-Ala-Ile-Phe-Thr-Ser-Ser-Tyr-Arg-Arg-Ile-Leu-Gly-Gln-Leu-Tyr- Ala-Arg-Lys-Leu-Leu-His-D-Glu-Ile-Nle-Asn-Arg-NH2] (H-HADAIFTSSYRRILGQLYARKLLH[dE]I[Nle]NR-NH2): in assay [1], the Comparison % is 125%. As to `CCCC[C@H](NC(=O)[C@@H](NC(=O)[C@H](CCC(=O)O)NC(=O)[C@H](Cc1c[nH]cn1)NC(=O)[C@@H](CC(C)C)NC(=O)[C@H](CC(C)C)NC(=O)[C@H](CCCCN)NC(=O)[C@H](CCCNC(=N)N)NC(=O)[C@H](C)NC(=O)[C@H](Cc1ccc(O)cc1)NC(=O)[C@H](CC(C)C)NC(=O)[C@H](CCC(N)=O)NC(=O)CNC(=O)[C@H](CC(C)C)NC(=O)[C@@H](NC(=O)[C@H](CCCNC(=N)N)NC(=O)[C@H](CCCNC(=N)N)NC(=O)[C@H](Cc1ccc(O)cc1)NC(=O)[C@H](CO)NC(=O)[C@H](CO)NC(=O)[C@@H](NC(=O)[C@H](Cc1ccccc1)NC(=O)[C@@H](NC(=O)[C@H](C)NC(=O)[C@H](CC(=O)O)NC(=O)[C@H](C)NC(=O)[C@@H](N)Cc1c[nH]cn1)[C@@H](C)CC)[C@@H](C)O)[C@@H](C)CC)[C@@H](C)CC)C(=O)N[C@@H](CC(N)=O)C(=O)N[C@@H](CCCNC(=N)N)C(N)=O` [[D-Leu^23, Nle^27]-rGRF(1-29)-NH2, H-His-Ala-Asp-Ala-Ile-Phe-Thr-Ser-Ser-Tyr-Arg-Arg-Ile-Leu-Gly-Gln-Leu-Tyr- Ala-Arg-Lys-Leu-D-Leu-His-Glu-Ile-Nle-Asn-Arg-NH2] (H-HADAIFTSSYRRILGQLYARKL[dL]HEI[Nle]NR-NH2), the “duration compared with rGRF(1-29)-NH2” value in assay [2] (GH levels in blood) is listed as “substantially longer duration”. The “stimulation of the secretion of pituitary GH (GH levels in blood)” value in assay [2] (blood samples prior to and 5 and 20 minutes after injection, radioimmunoassay) is given as “powerful stimulators of the secretion of pituitary GH”. The same compound showed a Comparison % in assay [1] of 160%. With [D-Leu^23, Nle^27 ]-hpGRF(1-29)-NH2, in assay [1] (in vitro GH secretion), the maximum effective concentration entry is on record as “about 1 nanomolar”.
